From US5179105A, “Phenoxyacetic acid compounds, method for production thereof, and pharmaceutical preparations containing same” (Terumo Kabushiki Kaisha, priority 1990, dated 1993)

Tests used:
Set-up in all cases: species or system Hartley type male guinea pigs
leukotriene D4 [1] = assay: in vitro antagonistic action to leukotriene D4 (LTD4-induced shrinkage of excised ileal segments); settings: guinea pig ileal segments, leukotriene D4 10^-8 M
Protocol: (§1) The IC50 values indicative of the in vitro antagonistic actions of the compounds of this invention to thromboxane A2 and leukotriene D4 were determined by the use of the following test system.
(§2) Bronchial segments and ileal segments excised from Hartley type male guinea pigs 350 to 450 g in body weight were suspended under respective loads of 0.3 g and 0.5 g in Magnus baths containing Tyrode solution and kept exposed to passage therethrough of a mixed gas consisting of 95% of oxygen and 5% of carbon dioxide. After the suspended segments were stabilized for about one hour, U-46619 (equivalent to thromboxane A2, produced by Kaiman K. K.) was added in a concentration of 10^-7 to the bath containing the bronchial segments and leukotriene D4 (produced by Wako Pure Chemicals Co., Ltd.) in a concentration of 10^-8 M to the bath containing the […] contrast to the amounts of shrinkage produced in the bronchial segments and ileal segments, the amounts of shrinkage produced by U-46619 in the bronchial segments and the amounts of shrinkage produced by leukotriene D4 in the ileal segments both in the presence of the compounds of this invention added in varying concentrations were measured. The IC50 values were computed based on the results of the measurement.

thromboxane A2 = assay: in vitro antagonistic action to thromboxane A2 (U-46619-induced shrinkage of excised bronchial segments); settings: guinea pig bronchial segments, U-46619 10^-7; read-out: antagonistic action to Tx A2 (IC50)
Protocol: as §1, §2

leukotriene D4 [2] = assay: in vitro antagonistic action to leukotriene D4 (LTD4-induced shrinkage of excised bronchial segments); settings: guinea pig bronchial segments, leukotriene D4 10^-8 M
Protocol: as §1, §2

SMILES	IC50 (leukotriene D4 [1]) [µM]	IC50 (thromboxane A2) [µM]	IC50 (leukotriene D4 [2]) [µM]
CCCc1c(OCC(=O)Nc2cc(CCCS(=O)(=O)c3ccc(Cl)cc3)ccc2OCC(=O)O)ccc(C(C)=O)c1O	3.8	0.0045	
CCCc1c(OCCCC(=O)Nc2cc(CCCS(=O)(=O)c3ccc(Cl)cc3)ccc2OCC(=O)O)ccc(C(C)=O)c1O	0.43	0.05	0.07
O=C(O)COc1ccc(CCCS(=O)(=O)c2ccc(Cl)cc2)cc1NC(=O)c1ccc(OCc2ccc3ccccc3n2)cc1	0.37	0.026	
O=C(O)COc1ccc(CCCS(=O)(=O)c2ccc(Cl)cc2)cc1NC(=O)c1cccc(OCc2ccc3ccccc3n2)c1 [drawing 21]	0.0013	0.057	0.004
O=C(O)COc1ccc(CCCS(=O)(=O)c2ccc(Cl)cc2)cc1NC(=O)c1cccc(OCc2ccc3ccccc3n2)c1 [drawing 22]		0.03	0.15
